Data: article PMC11073699, “Odorant receptors for floral- and plant-derived volatiles in the yellow fever mosquito, Aedes aegypti (Diptera: Culicidae)” (PLOS ONE, 2024)
“And” between values parts separate entries of the source, which are not always exact repeats. Identical values can stand only once.

Tests used:
AaegOR15 = target: T1, AaegOR15 (Aedes aegypti, UniProt A0A6B9QIR2); experiment: Two-electrode voltage clamp of Xenopus laevis oocytes expressing AaegOR15/Orco (blends, unitary compounds, concentration-response); assay type: cell-based; settings: for Raw data (Responses in nA), compounds of blend Alcohols 2: individual oocytes 1-10 (replicates); for Raw Data, concentration-response: no unit printed in this section (nA in the sections above); for Raw data (Responses in nA), phenethyl propionate versus 1-hexanol: separate set of 7 oocytes (replicates); for response of OR15 to unitary compounds: individual compounds
T1 sequence (A0A6B9QIR2 1-390): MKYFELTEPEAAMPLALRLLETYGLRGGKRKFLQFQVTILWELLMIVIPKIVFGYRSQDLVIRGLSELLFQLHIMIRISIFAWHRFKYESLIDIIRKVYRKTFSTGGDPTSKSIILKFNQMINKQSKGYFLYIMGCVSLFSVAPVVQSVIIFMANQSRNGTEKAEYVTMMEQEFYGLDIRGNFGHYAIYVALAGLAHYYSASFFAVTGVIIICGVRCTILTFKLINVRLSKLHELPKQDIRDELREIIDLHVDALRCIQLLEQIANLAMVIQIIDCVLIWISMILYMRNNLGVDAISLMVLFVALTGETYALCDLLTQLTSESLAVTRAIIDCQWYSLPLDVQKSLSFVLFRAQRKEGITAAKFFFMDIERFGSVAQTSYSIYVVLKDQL
T1 sequence (Q178U6 1-478 partner): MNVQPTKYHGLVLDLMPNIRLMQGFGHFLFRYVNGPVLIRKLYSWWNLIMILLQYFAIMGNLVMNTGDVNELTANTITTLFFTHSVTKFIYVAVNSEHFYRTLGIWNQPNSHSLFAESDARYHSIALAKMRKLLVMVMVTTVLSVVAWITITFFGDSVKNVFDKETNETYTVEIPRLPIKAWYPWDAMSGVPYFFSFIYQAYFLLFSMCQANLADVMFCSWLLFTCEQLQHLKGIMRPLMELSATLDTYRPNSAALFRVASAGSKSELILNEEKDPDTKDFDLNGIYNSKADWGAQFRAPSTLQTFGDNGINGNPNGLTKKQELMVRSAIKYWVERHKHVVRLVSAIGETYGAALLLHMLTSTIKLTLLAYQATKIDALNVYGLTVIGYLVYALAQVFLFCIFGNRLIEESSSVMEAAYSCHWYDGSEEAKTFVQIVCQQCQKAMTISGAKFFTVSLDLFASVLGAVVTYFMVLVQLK
Excerpt: (§1) The coding regions of ten AaegOR genes of interest (S3 File) and AaegOrco were synthesized by Twist Bioscience (San Francisco, CA, USA) and cloned into the pENTR plasmid. The Gateway LR directional cloning system (Invitrogen Corp., Carlsbad, CA, USA) was utilized to subclone AaegOR coding regions into the pSP64t-RFA oocyte expression plasmid. Plasmids were purified using the GeneJet Plasmid Miniprep Kit (ThermoFisher Scientific, Waltham, MA, USA). Purified plasmids were sequenced in both directions to confirm coding regions.
(§2) Chemical compounds (S6 File) used in the deorphanization of AaegORs were purchased from Acros Organics (Morris, NJ, USA), Alfa Aesar (Ward Hill, MA, USA), and ThermoFisher Scientific (Waltham, MA, USA) at the highest purity available. Compounds were stored as 1M stocks in 100% DMSO. Serial dilutions of each compound were prepared in 10% DMSO and blended by chemical class.
(§3) pSP64t-RFA: AaegOR clones were linearized using Xbal, and cRNAs were synthesized using the mMESSAGE mMACHINE ® SP6 kit (Life Technologies, Carlsbad, CA, USA). Xenopus laevis stage V-VII oocytes purchased from Xenopus1 (Dexter, MI, USA) were stored at 18°C in Incubation medium (ND96 96 with 5% dialyzed horse serum, 50μg/mL gentamycin, 100μg/mL streptomycin, 100μg/mL penicillin, and 550μg/mL sodium pyruvate). 30nL of cRNA was injected into multiple oocytes using a microinjection syringe pump (World Precision Instruments, Sarasota, FL, USA) maintained at 18°C for 48–72 hrs. Odorant blends were perfused across individual oocytes for 10–15 seconds, held at a resting membrane potential of -80 mV using an OC-725C oocyte clamp (Warner Instruments, LLC, Hamden, CT, USA). Induced currents were measured indirectly using the two-electrode voltage clamp technique (TEVC). Following each stimulus, currents were allowed to return to baseline before further stimulation. Data was captured using the Digidata 1550 B digitizer and PClamp10 software (Molecular Devices, San Jose, CA, USA). Concentration-response curves were generated by perfusing unitary odorants over oocytes at increasing concentrations from [10^-3M] to [10^-9M]. Data were analyzed using GraphPad Prism 8 (GraphPad Software Inc., La Jolla, CA, USA). At least two biological replicates were conducted at each concentration and for each compound. Data for at least seven oocytes responding to each compound was analyzed (S7 File).

AaegOR8 = target: T2, AaegOR8 (Aedes aegypti, UniProt Q16MN0); experiment: Two-electrode voltage clamp of Xenopus laevis oocytes expressing AaegOR8/Orco (blends, unitary compounds, concentration-response); assay type: cell-based; settings: for Raw data (Responses in nA) Oocyte 1 / Raw data (Responses in nA) Oocyte 2 / Raw data (Responses in nA) Oocyte 3 / Raw data (Responses in nA) Oocyte 4 / Raw data (Responses in nA) Oocyte 5 / Raw data (Responses in nA) Oocyte 6 / Raw data (Responses in nA) Oocyte 7 / Raw data (Responses in nA) Oocyte 8: Alcohols 2 unitary compounds
T2 sequence (Q16MN0 32-422): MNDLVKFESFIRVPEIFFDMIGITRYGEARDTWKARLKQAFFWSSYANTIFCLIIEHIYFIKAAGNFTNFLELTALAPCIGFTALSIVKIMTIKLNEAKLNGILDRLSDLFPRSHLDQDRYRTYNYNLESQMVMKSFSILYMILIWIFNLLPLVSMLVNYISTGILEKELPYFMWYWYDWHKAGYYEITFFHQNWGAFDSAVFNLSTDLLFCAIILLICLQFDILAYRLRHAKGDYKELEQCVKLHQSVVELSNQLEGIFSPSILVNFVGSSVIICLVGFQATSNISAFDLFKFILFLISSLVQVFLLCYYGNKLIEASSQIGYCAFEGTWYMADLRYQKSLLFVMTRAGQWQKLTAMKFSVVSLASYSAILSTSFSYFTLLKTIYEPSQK
T2 sequence (Q178U6 1-478 partner): T1 sequence (Q178U6 1-478 partner)
Excerpt: as §1, §2, §3

[1] = unitary compounds of Alcohols 2
[2] = AaegOR15/Orco expressing oocytes, TEVC

| Structure (SMILES) | Raw data (Responses in nA), compounds of blend Alcohols 2 (AaegOR15; [1]) | Raw data (Responses in nA) Oocyte 1 (AaegOR8) [nA] | Raw data (Responses in nA) Oocyte 2 (AaegOR8) [nA] | Raw data (Responses in nA) Oocyte 3 (AaegOR8) [nA] | Raw data (Responses in nA) Oocyte 4 (AaegOR8) [nA] | Raw data (Responses in nA) Oocyte 5 (AaegOR8) [nA] | Raw data (Responses in nA) Oocyte 6 (AaegOR8) [nA] | Raw data (Responses in nA) Oocyte 7 (AaegOR8) [nA] | Raw data (Responses in nA) Oocyte 8 (AaegOR8) [nA] | further results |
| --- | --- | --- | --- | --- | --- | --- | --- | --- | --- | --- |
| C=CC(C)(O)CCC=C(C)C (racemic) [(+/-)-linalool] | 0.0 nA (2×) and 5.0 nA and 10.0 nA (4×) and 20.0 nA and 40.0 nA and 15.0 nA | – | – | – | – | – | – | – | – | Normalized response, compounds of blend Alcohols 2, Average (AaegOR15; unitary compounds of Alcohols 2, average of 10 oocytes, 1-hexanol = 100): 2.4; Normalized response, compounds of blend Alcohols 2 (AaegOR15; unitary compounds of Alcohols 2, individual oocytes 1-10, normalized to the largest response of each oocyte (1-hexanol = 100)): 0.0 (2×) and 1.4 and 1.3 and 1.5 and 1.9 and 1.7 and 5.4 and 5.5 and 5.6 |
| CCCCCCO [1-hexanol] | 50.0 nA and 90.0 nA and 725.0 nA and 780.0 nA and 70.0 nA and 670.0 nA and 1070.0 nA and 580.0 nA and 740.0 nA and 275.0 nA | 10.0 | 10.0 | 40.0 | 15.0 | 30.0 | 170.0 | 120.0 | 10.0 | Raw Data, concentration-response (AaegOR15; 1e-7 M, individual oocytes 1-10): 60.0 (2×) and 50.0 (2×) and 70.0 and 55.0 and 40.0 and 75.0 and 15.0 and 35.0; Raw Data, concentration-response (AaegOR15; 5e-7 M, individual oocytes 1-10): 160.0 (2×) and 155.0 and 230.0 and 165.0 and 140.0 and 60.0; Raw Data, concentration-response (AaegOR15; 1e-6 M, individual oocytes 1-10): 180.0 and 350.0 and 220.0 (2×) and 365.0 and 90.0 and 160.0; Raw Data, concentration-response (AaegOR15; 5e-6 M, individual oocytes 1-10): 360.0 and 450.0 and 465.0 and 645.0 and 445.0 and 395.0 and 590.0 and 415.0 and 190.0 and 310.0; Raw Data, concentration-response (AaegOR15; 1e-5 M, individual oocytes 1-10): 410.0 and 480.0 and 510.0 and 730.0 and 495.0 and 435.0 and 655.0 and 450.0 and 360.0; Raw Data, concentration-response (AaegOR15; 5e-5 M, individual oocytes 1-10): 440.0 and 510.0 and 525.0 and 770.0 and 515.0 and 455.0 and 665.0 and 475.0 and 370.0; Raw Data, concentration-response (AaegOR15; 0.0001 M, individual oocytes 1-10): 330.0 and 470.0 and 400.0 and 665.0 and 440.0 and 350.0 and 460.0 and 370.0 and 200.0 and 280.0; EC50 (AaegOR15; AaegOR15/Orco expressing oocytes, TEVC, concentration-response of normalized current): ~1070 nM and 1070 nM; Raw data (Responses in nA), phenethyl propionate versus 1-hexanol (AaegOR15): 30.0 nA and 100.0 nA and 180.0 nA and 120.0 nA and 110.0 nA and 90.0 nA and 95.0 nA |
| C=CC(O)CCCCC (stereo not shown) [1-octen-3-ol] | 10.0 nA and 20.0 nA (2×) and 200.0 nA and 230.0 nA and 210.0 nA and 370.0 nA and 110.0 nA and 240.0 nA and 80.0 nA | 190.0 | 160.0 | 280.0 | 780.0 | 980.0 | 2200.0 | 2720.0 | 240.0 | EC50 (AaegOR8; AaegOR8/Orco expressing oocytes, TEVC, concentration-response of normalized current): 2140 nM |
| C[C@@H]1CC[C@H]2C(C)(C)[C@H]3C[C@@]12CC[C@@]3(C)O [Cedrol] | 0.0 nA (3×) and 5.0 nA (2×) and 10.0 nA (3×) and 25.0 nA and 20.0 nA | 0.0 | 0.0 | 0.0 | 0.0 | 0.0 | 0.0 | 0.0 | 0.0 | – |
| COc1ccccc1 [anisole] | 10.0 nA and 20.0 nA (2×) and 220.0 nA and 280.0 nA and 290.0 nA and 310.0 nA and 170.0 nA and 260.0 nA and 100.0 nA | 0.0 | 0.0 | 0.0 | 0.0 | 0.0 | 10.0 | 5.0 | 0.0 | – |
| CC/C=C\CCO [cis-3-hexen-1-ol] | 20.0 nA and 25.0 nA (2×) and 360.0 nA and 370.0 nA and 350.0 nA and 580.0 nA and 250.0 nA and 520.0 nA and 140.0 nA | 0.0 | 0.0 | 0.0 | 0.0 | 5.0 | 0.0 | 10.0 | 0.0 | response of OR15 to unitary compounds (AaegOR15; [2]): additional responses |
| CCCCCC=O [hexanal] | 0.0 nA (2×) and 10.0 nA and 80.0 nA and 85.0 nA and 110.0 nA (2×) and 160.0 nA and 115.0 nA and 40.0 nA | – | – | – | – | – | – | – | – | – |
| CCC(=O)OCCc1ccccc1 [phenethyl propionate] | – | – | – | – | – | – | – | – | – | response of OR15 to unitary compounds (AaegOR15; [2]): additional responses; Secondary Ligand (AaegOR15; AaegOR15, secondary ligand identified during the functional characterizations): phenethyl propionate; Normalized response, phenethyl propionate, Average (AaegOR15; average of 7 oocytes, relative to 1-hexanol): 56.0; Raw data (Responses in nA), phenethyl propionate versus 1-hexanol (AaegOR15): 10.0 nA and 100.0 nA and 90.0 nA and 70.0 nA (2×) and 40.0 nA (2×) |
